Assay results from US8143263B2, “Therapeutic agents” (Astrazeneca AB, priority 2008, dated 2012).

What follows are compounds tested against T1, recombinant human pancreatic GLK (Homo sapiens, UniProt P35557) (assay: biochemical).
T1 sequence (P35557 1-465): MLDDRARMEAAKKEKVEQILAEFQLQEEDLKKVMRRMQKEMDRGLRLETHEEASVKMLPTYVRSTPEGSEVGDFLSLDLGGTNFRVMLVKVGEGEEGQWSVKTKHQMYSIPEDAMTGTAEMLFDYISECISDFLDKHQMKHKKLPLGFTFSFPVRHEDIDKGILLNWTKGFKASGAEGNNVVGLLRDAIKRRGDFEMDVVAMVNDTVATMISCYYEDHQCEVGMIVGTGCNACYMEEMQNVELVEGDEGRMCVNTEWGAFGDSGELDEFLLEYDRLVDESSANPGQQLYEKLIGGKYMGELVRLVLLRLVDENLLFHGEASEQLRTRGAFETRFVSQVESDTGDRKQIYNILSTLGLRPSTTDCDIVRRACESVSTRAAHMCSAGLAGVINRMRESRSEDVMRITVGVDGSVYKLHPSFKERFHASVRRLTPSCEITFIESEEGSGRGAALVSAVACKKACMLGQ
`Cc1ccc(NC(=O)C(CCS(C)(=O)=O)Oc2ncnc3c2cnn3C)nc1` (stereo not shown) [2-(1-methylpyrazolo[4,5-e]pyrimidin-4-yl)oxy-N-(5-methyl-2-pyridyl)-4-methylsulfonyl-butanamide] showed an EC50 of over 100000 nM. Work on `Cc1nnc(NC(=O)C(COC(C)C)Oc2ncnc3c2cnn3-c2ccccc2Cl)o1` (stereo not shown) [2-[1-(2-chlorophenyl)pyrazolo[4,5-e]pyrimidin-4-yl]oxy-3-isopropoxy-N-(5-methyl-1,3,4-oxadiazol-2-yl)propanamide] yielded an EC50 of over 100000 nM. `CC(C)OCC(Oc1ncnc2c1cnn2-c1ccccc1Cl)C(=O)Nc1ncccn1` (stereo not shown) [2-[1-(2-chlorophenyl)pyrazolo[4,5-e]pyrimidin-4-yl]oxy-3-isopropoxy-N-pyrimidin-2-yl-propanamide] showed an EC50 of over 100000 nM. For `CC(C)OCC(Oc1ncnc2c1cnn2-c1ccccc1Cl)C(=O)Nc1cc(C#N)ccn1` (stereo not shown) [2-[1-(2-chlorophenyl)pyrazolo[4,5-e]pyrimidin-4-yl]oxy-N-(4-cyano-2-pyridyl)-3-isopropoxy-propanamide], the EC50 was over 100000 nM. In the case of `COCCOCCC(Sc1ncnc2c1cnn2-c1ccccc1Cl)C(=O)Nc1ccc(C)cn1` (stereo not shown) [2-[1-(2-chlorophenyl)pyrazolo[4,5-e]pyrimidin-4-yl]sulfanyl-4-(2-methoxyethoxy)-N-(5-methyl-2-pyridyl)butanamide], the EC50 is reported as over 100000 nM. `CCCCCCC(Sc1ncnc2c1cnn2-c1ccccc1Cl)C(=O)Nc1ccc(C)cn1` (stereo not shown) [2-[1-(2-chlorophenyl)pyrazolo[4,5-e]pyrimidin-4-yl]sulfanyl-N-(5-methyl-2-pyridyl)octanamide] gave an EC50 of over 100000 nM. In the case of `Cc1cccnc1NC(=O)[C@H](COC(C)C)Oc1ncnc2c1cnn2-c1ncccc1Cl` [(2S)-2-[1-(3-chloro-2-pyridyl)pyrazolo[4,5-e]pyrimidin-4-yl]oxy-3-isopropoxy-N-(3-methyl-2-pyridyl)propanamide], the EC50 is reported as over 100000 nM. Work on `COc1ccnc(NC(=O)[C@H](COC(C)C)Oc2ncnc3c2cnn3-c2ncccc2Cl)c1` [(2S)-2-[1-(3-chloro-2-pyridyl)pyrazolo[4,5-e]pyrimidin-4-yl]oxy-3-isopropoxy-N-(4-methoxy-2-pyridyl)propanamide] yielded an EC50 of over 100000 nM. Work on `Cc1nc(NC(=O)[C@H](COC(C)C)Oc2ncnc3c2cnn3-c2ncccc2Cl)nn1C` [(2S)-2-[1-(3-chloro-2-pyridyl)pyrazolo[4,5-e]pyrimidin-4-yl]oxy-N-(1,5-dimethyl-1,2,4-triazol-3-yl)-3-isopropoxy-propanamide] yielded an EC50 of over 100000 nM. `COc1ccccc1-n1ncc2c(O[C@H](C)C(=O)Nc3ccc(C)cn3)ncnc21` [(R)-2-[1-(2-methoxyphenyl)pyrazolo[4,5-e]pyrimidin-4-yl]oxy-N-(5-methyl-2-pyridyl)propanamide] was tested, and the EC50 was over 100000 nM. `COCC[C@@H](Oc1ncnc2c1cnn2-c1ccccn1)C(=O)Nc1ccc(C)cn1` [(R)-4-methoxy-N-(5-methyl-2-pyridyl)-2-[1-(2-pyridyl)pyrazolo[4,5-e]pyrimidin-4-yl]oxy-butanamide] was tested, and the EC50 was over 100000 nM. Work on `COCC(Oc1ncnc2c1cnn2-c1ccccc1Cl)C(=O)Nc1ccc(C)cn1` (stereo not shown) [Example 1, 2-{[1-(2-chlorophenyl)-1H-pyrazolo[3,4-d]pyrimidin-4-yl]oxy}-3-methoxy-N-(5-methylpyridin-2-yl)propanamide] yielded an EC50 of 620 nM. With `COC[C@@H](Oc1ncnc2c1cnn2-c1ccccc1Cl)C(=O)Nc1ccc(C)cn1` [Example 2, (R)-2-{[1-(2-chlorophenyl)-1H-pyrazolo[3,4-d]pyrimidin-4-yl]oxy}-3-methoxy-N-(5-methylpyridin-2-yl)propanamide] the EC50 was at least 100000 nM. `COC[C@H](Oc1ncnc2c1cnn2-c1ccccc1Cl)C(=O)Nc1ccc(C)cn1` [Example 3, (S)-2-{[1-(2-chlorophenyl)-1H-pyrazolo[3,4-d]pyrimidin-4-yl]oxy}-3-methoxy-N-(5-methylpyridin-2-yl)propanamide] was tested, and the EC50 was 170 nM. Work on `COCC(Oc1ncnc2c1cnn2-c1ccccc1OC)C(=O)Nc1ccc(C)cn1` (stereo not shown) [Example 4, 3-methoxy-2-{[1-(2-methoxyphenyl)-1H-pyrazolo[3,4-d]pyrimidin-4-yl]oxy}-N-(5-methylpyridin-2-yl)propanamide] yielded an EC50 of 3400 nM. `COC[C@@H](Oc1ncnc2c1cnn2-c1ccccc1OC)C(=O)Nc1ccc(C)cn1` [Example 5, (R)-3-methoxy-2-{[1-(2-methoxyphenyl)-1H-pyrazolo[3,4-d]pyrimidin-4-yl]oxy}-N-(5-methylpyridin-2-yl)propanamide] gave an EC50 of at least 100000 nM. Compound `COC[C@H](Oc1ncnc2c1cnn2-c1ccccc1OC)C(=O)Nc1ccc(C)cn1` [Example 6, (S)-3-methoxy-2-{[1-(2-methoxyphenyl)-1H-pyrazolo[3,4-d]pyrimidin-4-yl]oxy}-N-(5-methylpyridin-2-yl)propanamide] has an EC50 of 680 nM. `COCC(Oc1ncnc2c1cnn2-c1ccc(Cl)cc1Cl)C(=O)Nc1ccc(C)cn1` (stereo not shown) [Example 7, 2-{[1-(2,4-Dichlorophenyl)-1H-pyrazolo[3,4-d]pyrimidin-4-yl]oxy}-3-methoxy-N-(5-methylpyridin-2-yl)propanamide] showed an EC50 of 3700 nM. `COCC(Oc1ncnc2c1cnn2C)C(=O)Nc1ccc(C)cn1` (stereo not shown) [Example 8, 3-methoxy-2-[(1-methyl-1H-pyrazolo[3,4-d]pyrimidin-4-yl)oxy]-N-(5-methylpyridin-2-yl)propanamide] was tested, and the EC50 was at least 100000 nM. `Cc1ccc(NC(=O)C(CCS(C)(=O)=O)Oc2ncnc3c2cnn3-c2ccccc2Cl)nc1` (stereo not shown) [Example 9, 2-{[1-(2-chlorophenyl)-1H-pyrazolo[3,4-d]pyrimidin-4-yl]oxy}-N-(5-methylpyridin-2-yl)-4-(methylsulfonyl)butanamide] gave an EC50 of 520 nM. Work on `COc1ccccc1-n1ncc2c(OC(CCS(C)(=O)=O)C(=O)Nc3ccc(C)cn3)ncnc21` (stereo not shown) [Example 10, 2-{[1-(2-methoxyphenyl)-1H-pyrazolo[3,4-d]pyrimidin-4-yl]oxy}-N-(5-methylpyridin-2-yl)-4-(methylsulfonyl)butanamide] yielded an EC50 of 2700 nM. For `COc1ccccc1-n1ncc2c(O[C@H](CCS(C)(=O)=O)C(=O)Nc3ccc(C)cn3)ncnc21` [Example 11, (R)-2-{[1-(2-methoxyphenyl)-1H-pyrazolo[3,4-d]pyrimidin-4-yl]oxy}-N-(5-methylpyridin-2-yl)-4-(methylsulfonyl)butanamide], the EC50 was at least 100000 nM. In the case of `COc1ccccc1-n1ncc2c(O[C@@H](CCS(C)(=O)=O)C(=O)Nc3ccc(C)cn3)ncnc21` [Example 12, (S)-2-{[1-(2-methoxyphenyl)-1H-pyrazolo[3,4-d]pyrimidin-4-yl]oxy}-N-(5-methylpyridin-2-yl)-4-(methylsulfonyl)butanamide], the EC50 is reported as 2400 nM. Work on `COCCC(Oc1ncnc2c1cnn2-c1cccc(OC)c1)C(=O)Nc1ccc(C)cn1` (stereo not shown) [Example 13, 4-methoxy-2-{[1-(3-methoxyphenyl)-1H-pyrazolo[3,4-d]pyrimidin-4-yl]oxy}-N-(5-methylpyridin-2-yl)butanamide] yielded an EC50 of 1400 nM. For `COCC[C@@H](Oc1ncnc2c1cnn2-c1cccc(OC)c1)C(=O)Nc1ccc(C)cn1` [Example 14, (R)-4-methoxy-2-{[1-(3-methoxyphenyl)-1H-pyrazolo[3,4-d]pyrimidin-4-yl]oxy}-N-(5-methylpyridin-2-yl)butanamide], the EC50 was at least 100000 nM. `COCC[C@H](Oc1ncnc2c1cnn2-c1cccc(OC)c1)C(=O)Nc1ccc(C)cn1` [Example 15, (S)-4-methoxy-2-{[1-(3-methoxyphenyl)-1H-pyrazolo[3,4-d]pyrimidin-4-yl]oxy}-N-(5-methylpyridin-2-yl)butanamide] gave an EC50 of 2700 nM. Compound `COCCC(Oc1ncnc2c1cnn2-c1ccccc1C)C(=O)Nc1ccc(C)cn1` (stereo not shown) [Example 16, 4-methoxy-2-{[1-(2-methylphenyl)-1H-pyrazolo[3,4-d]pyrimidin-4-yl]oxy}-N-(5-methylpyridin-2-yl)butanamide] has an EC50 of 290 nM. `COCC[C@H](Oc1ncnc2c1cnn2-c1ccccc1C)C(=O)Nc1ccc(C)cn1` [Example 17, (S)-4-methoxy-2-{[1-(2-methylphenyl)-1H-pyrazolo[3,4-d]pyrimidin-4-yl]oxy}-N-(5-methylpyridin-2-yl)butanamide] showed an EC50 of 64 nM. For `COCC[C@@H](Oc1ncnc2c1cnn2-c1ccccc1C)C(=O)Nc1ccc(C)cn1` [Example 18, (R)-4-methoxy-2-{[1-(2-methylphenyl)-1H-pyrazolo[3,4-d]pyrimidin-4-yl]oxy}-N-(5-methylpyridin-2-yl)butanamide], the EC50 was 32000 nM. `COCCC(Oc1ncnc2c1cnn2-c1ccccc1Cl)C(=O)Nc1ccc(C)cn1` (stereo not shown) [Example 19, 2-{[1-(2-Chlorophenyl)-1H-pyrazolo[3,4-d]pyrimidin-4-yl]oxy}-4-methoxy-N-(5-methylpyridin-2-yl)butanamide] gave an EC50 of 95 nM. For `COCC[C@@H](Oc1ncnc2c1cnn2-c1ccccc1Cl)C(=O)Nc1ccc(C)cn1` [Example 20, (R)-2-{[1-(2-Chlorophenyl)-1H-pyrazolo[3,4-d]pyrimidin-4-yl]oxy}-4-methoxy-N-(5-methylpyridin-2-yl)butanamide], the EC50 was 9300 nM. With `COCC[C@H](Oc1ncnc2c1cnn2-c1ccccc1Cl)C(=O)Nc1ccc(C)cn1` [Example 21, (S)-2-{[1-(2-chlorophenyl)-1H-pyrazolo[3,4-d]pyrimidin-4-yl]oxy}-4-methoxy-N-(5-methylpyridin-2-yl)butanamide] the EC50 was 32 nM. `COCCC(Oc1ncnc2c1cnn2-c1ccccc1OC)C(=O)Nc1ccc(C)cn1` (stereo not shown) [Example 22, 4-Methoxy-2-{[1-(2-methoxyphenyl)-1H-pyrazolo[3,4-d]pyrimidin-4-yl]oxy}-N-(5-methylpyridin-2-yl)butanamide] gave an EC50 of 190 nM. In the case of `COCC[C@@H](Oc1ncnc2c1cnn2-c1ccccc1OC)C(=O)Nc1ccc(C)cn1` [Example 23, (R)-4-Methoxy-2-{[1-(2-methoxyphenyl)-1H-pyrazolo[3,4-d]pyrimidin-4-yl]oxy}-N-(5-methylpyridin-2-yl)butanamide], the EC50 is reported as at least 100000 nM.
